In patent publication US12729367B2, “Radial glia and astrocyte differentiation from human pluripotent stem cells” (The United States of America, as represented by the …, priority 2020, dated 2026):

Columns and labels:
[1] = test system: iPSC-derived astrocytes; assay: Calcium transients in iPSC-derived astrocytes in response to stimuli; format: cell-based, human; conditions: DMSO as control treatment, FIG. 15
[2] = as described in Sidrauski et al.; cited from earlier work

SMILES | intracellular calcium levels [1] | IC50 [2] | potency of trans-ISRIB relative to cis-ISRIB [2]
Nc1ncnc2c1ncn2[C@@H]1O[C@H](COP(=O)(O)OP(=O)(O)OP(=O)(O)O)[C@@H](O)[C@H]1O [ATP] | increase of intracellular calcium levels | – | –
[Cl-].[K+] [KCL] | increase of intracellular calcium levels | – | –
N[C@@H](CCC(=O)O)C(=O)O [glutamate] | increase of intracellular calcium levels | – | –
O=C(COc1ccc(Cl)cc1)N[C@H]1CC[C@H](NC(=O)COc2ccc(Cl)cc2)CC1 [trans-ISRIB, N,N′-((1r,4r)-cyclohexane-1,4-diyl)bis(2-(4-chlorophenoxy)acetamide)] | – | 5 nM | 100 fold
